Measurements taken from PubChem BioAssay (NCI).
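Interpolation was linear, between the two tested concentrations surrounding the appropriate level; five concentrations were tested over 48 hours in 96-well plates. GI50 is the concentration that inhibits growth by half. At the TGI there is no net growth.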

Tests used:
Assay in all cases: NCI tumour cell line growth inhibition, 48 h
HT29 colon = test system: HT29 colon
RPMI-8226 leukemia = test system: RPMI-8226 leukemia
UACC-257 melanoma = test system: UACC-257 melanoma
UO-31 renal = test system: UO-31 renal
ACHN renal = test system: ACHN renal
NCI-H522 lung = test system: NCI-H522 lung
MALME-3M melanoma = test system: MALME-3M melanoma
OVCAR-4 ovarian = test system: OVCAR-4 ovarian
CAKI-1 renal = test system: CAKI-1 renal
SK-MEL-5 melanoma = test system: SK-MEL-5 melanoma

SMILES | GI50 (HT29 colon) [µM] | TGI (HT29 colon) [µM] | GI50 (RPMI-8226 leukemia) [µM] | TGI (RPMI-8226 leukemia) [µM] | GI50 (UACC-257 melanoma) [µM] | TGI (UACC-257 melanoma) [µM] | GI50 (UO-31 renal) [µM] | TGI (UO-31 renal) [µM] | GI50 (ACHN renal) [µM] | TGI (ACHN renal) [µM] | GI50 (NCI-H522 lung) [µM] | TGI (NCI-H522 lung) [µM] | GI50 (MALME-3M melanoma) [µM] | TGI (MALME-3M melanoma) [µM] | GI50 (OVCAR-4 ovarian) [µM] | TGI (OVCAR-4 ovarian) [µM] | GI50 (CAKI-1 renal) [µM] | TGI (CAKI-1 renal) [µM] | GI50 (SK-MEL-5 melanoma) [µM] | TGI (SK-MEL-5 melanoma) [µM]
COc1cc(OC)c(C(=O)/C=C/c2cccc(C(F)(F)F)c2)c(OC)c1 | 1.69 | 4.75 | 1.03 | 2.85 | 2.06 | 7.89 | 1.43 | 5.24 | 1.46 | 5.17 | 0.857 | 1.94 | 2.38 | 8.3 | 2.24 | 8.57 | 2.17 | 7.22 | 1.07 | 2.54
COc1ccc(C(=O)c2cc(C)c(OC)c(C)c2)cc1OC(=O)CCl | 1.06 | 14.8 | < 0.01 | 25.3 | 19 | > 100 | – | > 100 | < 0.01 | 77.5 | < 0.01 | < 0.01 | 13.1 | 59.6 | 0.866 | > 100 | – | – | < 0.01 | 0.459
O=C1c2cccnc2-c2nc(-c3ccc(Cl)cc3)cc3c2c1nc1ccccc13 | – | – | 56.5 | > 100 | 57.7 | > 100 | 46.9 | > 100 | 15.9 | 33.7 | 21 | > 100 | 20.2 | 91.5 | 43.6 | > 100 | 67.7 | > 100 | 17.5 | 80.8
c1ccc(C2N3CCCCC3[C@@H]3c4[nH]c5ccccc5c4CCN23)nc1 (stereo partly specified) | – | > 100 | – | > 100 | – | > 100 | – | > 100 | – | > 100 | – | – | – | – | – | > 100 | – | > 100 | – | > 100
CC1(C)C(=O)/C(=C\c2cccnc2)C[C@]2(C)[C@H]3CC[C@@H]4[C@H]5[C@H](C(=O)/C=C/c6cccnc6)CC[C@]5(C(=O)O)CC[C@@]4(C)[C@]3(C)CC[C@@H]12 | 3.09 | 10.8 | 1.88 | 7.28 | 1.88 | 4.25 | – | – | 1.69 | 3.06 | 2.35 | 5.99 | 2 | 4.46 | 4.37 | > 100 | 1.66 | 3.38 | 1.8 | 3.22
C=C(C)CCN[Si](c1ccccc1)(c1ccccc1)C(C)(C)C | – | 30.2 | – | 62.2 | – | 29.1 | – | 26.9 | – | > 100 | – | 44.3 | – | 36.7 | – | 44.4 | – | – | – | 36.9
Cc1nnc(NS(=O)(=O)c2ccc(N=Nc3cc(N=Nc4ccc(S(=O)(=O)Nc5nnc(C)s5)cc4)c4c(NC(=O)C(Cl)Cl)cccc4c3OC(=O)C(Cl)Cl)cc2)s1 (tested in a mixture with another compound) | – | > 100 | – | 21 | – | > 100 | – | > 100 | – | – | – | 64.7 | – | 65.3 | – | 39 | – | > 100 | – | 75.8
COC(=O)[C@@]12C(=O)C=CC(=O)C1C1C(=CC2C)OC2OC3(CCCCC3)OC21 (stereo partly specified) | – | 44.9 | – | 26.4 | – | 31.5 | – | 30.5 | – | 30.6 | – | – | – | 37.8 | – | 30.3 | – | 33.4 | – | 33.6
[N-]=[N+]=C1C(=O)NN=C1c1ccccc1 | – | > 100 | – | > 100 | – | > 100 | – | – | – | > 100 | – | > 100 | – | > 100 | – | > 100 | – | > 100 | – | –
